The values that follow come from patent publication US9382243B2, “Azabenzimidazole tetrahydropyran derivatives” (Merck Sharp & Dohme Corp., priority 2012, dated 2016).

Assay [1] has as its target recombinant human AMPK complex 1 (containing α1β1γ1) (Homo sapiens, UniProt Q13131+Q9Y478). Description: AMPKSAMSF in vitro AMPK activation assay, complex 1. The conditions noted are these: for Emax: 10-point titration, expressed as % maximum AMP activation; for EC50: inflection point reflecting 50% of the maximum activation, table for human AMPK Complex 1. Format: biochemical. The procedure:
The recombinant human AMPK complex 1 (containing α1β1γ1) or AMPK complex 7 (containing α2β1γ1) was obtained from baculovirus expression system. Recombinant viruses were generated by cotransfection of AMPK/pBacPak9 clones with Baculogold baculovirus DNA (Pharmingen) in spodoptera frugiperda 21 cells according to the manufacturer's instructions. Each round of virus amplification was performed for 5 days in Grace's medium containing 10% serum. Virus that had been subjected to three rounds of amplification was used for all protein production procedures. To express the AMPK complex, sf21 cells were adapted to serum free medium (SF900 II, Invitrogen) by sequential dilution from serum containing stocks into SF900II medium and maintained in shaker flasks at 90 rpm at 27° C. The recombinant AMPK enzyme complex was produced by triple infection, one recombinant virus for each of the subunits, in sf21 cells under serum free conditions. Cells were infected in log phase, 1×10^6 cells/ml, at a multiplicity of infection of ˜5. Cells were harvested by centrifugation at 10,000×g for 15 minutes after 72 hours of infection with viruses. The insect cell pellet from 2 liters of culture was resuspended in 50 ml lysis buffer (20 mM Tris-HCl, 50 mM NaCl, 50 mM NaF, 30 mM Na PPi, 0.25 M sucrose, 10 mM ZnCl2, 2 mM DTT, 0.4 mg/ml digitonin) and subjected to two cycles of freeze-thaw lysis in a dry-ice ethanol bath. Insoluble material was removed by centrifugation at 10,000×g and the supernatant was fractionated with use of polyethylene glycol (PEG). The protein fraction precipitating between 2.5 and 6% PEG was used for further purification using a Blue-Sepharose step (Zhou et al, J. Clin. Invest. 108, 1167-1174, 2001).
The in vitro AMPK activation assay is performed in a volume of 30 μl in a 384-well plate. Enzyme reactions were assembled in the microtiter plate by adding 15 μl of 2× enzyme in assay buffer (20 mM HEPES, pH 7.3, 5 mM MgCl2, 3 mM DTT, 0.01% Brij 35 and CamK Kinase, to activate AMPK) to wells which contained either DMSO or compound. The reaction was initiated with the addition of 15 μl 2× substrate mixture containing 200 μM ATP, and 3.0 μM fluorescently labeled SAMS (5-FAM-HMRSAMSGLHLVKRR-COOH) in assay buffer. After 45-minute incubation at 25° C., the reaction was stopped by the addition of 70 μl stop buffer (100 mM HEPES, pH 7.3, 40 mM EDTA, 0.015% Brij 35). Phosphorylated 5-FAM SAMS product is assessed using a Caliper EZ Reader LabChip microfluidics reader. Product conversion is determined by calculating the peak heights of the substrate and product and reporting the product/(product+substrate) peak ratio. The 10-point titration data were expressed as % maximum AMP activation. The results were plotted using 4 parameter fit and the inflection point reflecting 50% of the maximum activation was reported as the EC50.

Another assay has as its system ob/ob and db/db mice. The conditions noted are these: following 8 weeks of administration; cited from earlier work.

recombinant human AMPK complex 1 (containing α1β1γ1), sequence (Q13131 whole entry): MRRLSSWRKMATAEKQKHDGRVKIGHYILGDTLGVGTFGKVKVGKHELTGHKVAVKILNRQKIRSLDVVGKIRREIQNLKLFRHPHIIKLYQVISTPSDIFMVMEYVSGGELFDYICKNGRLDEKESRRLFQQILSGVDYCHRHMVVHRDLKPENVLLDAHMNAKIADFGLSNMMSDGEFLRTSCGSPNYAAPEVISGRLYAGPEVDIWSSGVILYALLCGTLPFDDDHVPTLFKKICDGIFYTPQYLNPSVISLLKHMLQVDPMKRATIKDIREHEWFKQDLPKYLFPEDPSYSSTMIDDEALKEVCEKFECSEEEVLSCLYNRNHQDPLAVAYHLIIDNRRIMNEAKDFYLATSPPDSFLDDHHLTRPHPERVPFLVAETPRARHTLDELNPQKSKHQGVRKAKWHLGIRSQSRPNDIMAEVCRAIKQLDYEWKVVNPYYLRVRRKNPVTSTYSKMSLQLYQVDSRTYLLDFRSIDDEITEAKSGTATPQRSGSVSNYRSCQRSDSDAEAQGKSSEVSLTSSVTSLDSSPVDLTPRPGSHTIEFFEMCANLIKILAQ
recombinant human AMPK complex 1 (containing α1β1γ1), sequence (Q9Y478 whole entry): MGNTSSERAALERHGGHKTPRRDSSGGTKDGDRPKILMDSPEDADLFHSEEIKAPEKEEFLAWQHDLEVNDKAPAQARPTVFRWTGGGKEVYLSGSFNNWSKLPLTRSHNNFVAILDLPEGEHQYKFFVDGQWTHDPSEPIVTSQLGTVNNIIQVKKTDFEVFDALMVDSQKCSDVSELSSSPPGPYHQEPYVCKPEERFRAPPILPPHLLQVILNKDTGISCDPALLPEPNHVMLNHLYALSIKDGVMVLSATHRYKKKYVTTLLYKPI
recombinant human AMPK complex 1 (containing α1β1γ1), sequence (P54619 whole entry partner): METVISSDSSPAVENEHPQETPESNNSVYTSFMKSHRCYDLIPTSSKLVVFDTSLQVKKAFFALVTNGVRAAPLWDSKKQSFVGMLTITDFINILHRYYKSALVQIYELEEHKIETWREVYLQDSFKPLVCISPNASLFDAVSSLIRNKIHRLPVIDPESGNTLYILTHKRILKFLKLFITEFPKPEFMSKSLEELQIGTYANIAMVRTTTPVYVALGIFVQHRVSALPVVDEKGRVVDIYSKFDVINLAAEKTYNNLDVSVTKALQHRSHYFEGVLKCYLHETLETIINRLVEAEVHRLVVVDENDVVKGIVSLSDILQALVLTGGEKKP

In the case of `OC[C@H]1OC[C@H](Oc2nc3nc(-c4ccc(N5CC[C@@H](O)C5)cc4)c(Cl)cc3[nH]2)C[C@@H]1O` [Example 34], in assay [1], the Emax (in general, the size of the effect at its maximum, as opposed to the concentration needed) came out at 367% and the EC50 (in general, the concentration at which the effect is half-maximal) came out at 0.019 µM.

`O=C(c1ccc(-c2ccc(-c3nc4nc(O[C@H]5CO[C@H](CO)[C@@H](O)[C@@H]5O)[nH]c4cc3Cl)cc2)cc1)N1CCC(O)CC1` [Example 68]: in assay [1], the Emax came out at 419% and the EC50 was 0.006 µM.

As to `O=C(c1ccc(-c2ccc(-c3nc4nc(O[C@H]5CO[C@H](CO)[C@@H](O)C5)[nH]c4cc3Cl)cc2)cc1)N1CC[C@@H](O)C1` [Example 61, (4′-(6-chloro-2-(((3R,5 S,6R)-5-hydroxy-6-(hydroxymethyl)tetrahydro-2H-pyran-3-yl)oxy)-1H-imidazo[4,5-b]pyridin-5-yl)-[1,1′-biphenyl]-4-yl)((R)-3-hydroxypyrrolidin-1-yl)methanone], in assay [1], the Emax worked out at 568% and the EC50 came to 0.036 µM.

For the compound `NS(=O)(=O)c1ccc(-c2ccc(-c3nc4nc(O[C@H]5CO[C@H](CO)[C@@H](O)C5)[nH]c4cc3Cl)cc2)cc1` [Example 56], in assay [1], the Emax is 392% and the EC50 was 0.011 µM.

`O=C(c1ccc(-c2ccc(-c3nc4nc(O[C@H]5CO[C@H](CO)[C@@H](O)C5)[nH]c4cc3Cl)cc2)cc1)N1CCC(O)(C(F)(F)F)CC1` [Example 73]: in assay [1], the Emax amounted to 249% and the EC50 amounted to 0.008 µM.

In the case of `OC[C@H]1OC[C@H](Oc2nc3nc(-c4ccc(-c5ccc(-n6cccn6)cc5)cc4)c(Cl)cc3[nH]2)C[C@@H]1O` [Example 45], in assay [1], the Emax turned out to be 417% and the EC50 is 0.003 µM.

`OC[C@H]1OC[C@H](Oc2nc3nc(-c4ccc(-c5ccc(-c6ccn[nH]6)cc5)cc4)c(Cl)cc3[nH]2)C[C@@H]1O` [Example 46]: in assay [1], the Emax was 619% and the EC50 was 0.015 µM.

Take `CC(C)(O)c1ccc(-c2ccc(-c3nc4nc(O[C@H]5CO[C@H](CO)[C@@H](O)[C@@H]5O)[nH]c4cc3Cl)cc2)cc1` [Example 66]: in assay [1], the Emax was found to be 410% and the EC50 turned out to be 0.013 µM.

For `OC[C@H]1OC[C@H](Oc2nc3nc(-c4ccc(N5CC[C@@H](F)C5)cc4)c(Cl)cc3[nH]2)C[C@@H]1O` [Example 35], in assay [1], the Emax is 489% and the concentration for a half-maximal effect (EC50) is 0.018 µM.

For the compound `O=S(=O)(CC1COC1)c1ccc(-c2ccc(-c3nc4nc(O[C@H]5CO[C@H](CO)[C@@H](O)C5)[nH]c4cc3Cl)cc2)cc1` [Example 54], in assay [1], the Emax is 767% and the EC50 worked out at 0.009 µM.

For `OC[C@H]1OC[C@H](Oc2nc3nc(-c4ccc(-c5ccc(-n6ccnn6)cc5)cc4)c(Cl)cc3[nH]2)C[C@@H]1O` [Example 48], in assay [1], the Emax was 615% and the EC50 amounted to 0.002 µM.

Consider `OC[C@H]1OC[C@H](Oc2nc3nc(-c4ccc(N5CC[C@H](F)C5)cc4)c(Cl)cc3[nH]2)C[C@@H]1O` [Example 37], for which, in assay [1], the Emax was 473% and the EC50 was 0.022 µM.

Turning to `OC[C@H]1OC[C@H](Oc2nc3nc(-c4ccc(-c5ccc(-n6nccn6)cc5)cc4)c(Cl)cc3[nH]2)C[C@@H]1O` [Example 47], in assay [1], the Emax was determined as 590% and the 50% effective concentration (EC50) stood at 0.025 µM.

On to `CNC(=O)c1ccc(-c2ccc(-c3nc4nc(O[C@H]5CO[C@H](CO)[C@@H](O)C5)[nH]c4cc3Cl)cc2)cc1` [Example 71, 4′-(6-chloro-2-(((3R,5 S,6R)-5-hydroxy-6-(hydroxymethyl)tetrahydro-2H-pyran-3-yl)oxy)-1H-imidazo[4,5-b]pyridin-5-yl)-N-methyl-[1,1′-biphenyl]-4-carboxamide], for which, in assay [1], the Emax is 443% and the EC50 is 0.006 µM.

Turning to `CC(CO)Oc1ccc(-c2nc3nc(O[C@H]4CO[C@H](CO)[C@@H](O)C4)[nH]c3cc2Cl)cc1` (stereo partly drawn) [Example 1, (2R,3S,5R)-5-((6-chloro-5-(4-((1-hydroxypropan-2-yl)oxy)phenyl)-1H-imidazo[4,5-b]pyridin-2-yl)oxy)-2-(hydroxymethyl)tetrahydro-2H-pyran-3-ol], in assay [1], the Emax turned out to be 574% and the EC50 turned out to be 0.128 µM.

For the compound `CC1(O)CCN(C(=O)c2ccc(-c3ccc(-c4nc5nc(O[C@H]6CO[C@H](CO)[C@@H](O)C6)[nH]c5cc4Cl)cc3)cc2)CC1` [Example 72], in assay [1], the Emax is 504% and the EC50 was 0.008 µM.

For the compound `CC(C)(O)[C@H]1OC[C@H](Oc2nc3cc(Cl)c(-c4ccc(-c5ccccc5)cc4)nc3[nH]2)C[C@@H]1O` [Example 70, (2S,3 S,5R)-5-((5-([1,1′-biphenyl]-4-yl)-6-chloro-1H-imidazo[4,5-b]pyridin-2-yl)oxy)-2-(2-hydroxypropan-2-yl)tetrahydro-2H-pyran-3-ol], in assay [1], the Emax was 417% and the EC50 was determined as 0.031 µM.

For the compound `CS(=O)(=O)c1ccc(-c2ccc(-c3nc4nc(O[C@H]5CO[C@H](CO)[C@@H](O)[C@@H]5O)[nH]c4cc3Cl)cc2)cc1` [Example 67], in assay [1], the Emax came out at 418% and the EC50 was found to be 0.003 µM.

With `O=C(Nc1ccc(-c2ccc(-c3nc4nc(O[C@H]5CO[C@H](CO)[C@@H](O)C5)[nH]c4cc3Cl)cc2)cc1)OCC(O)CO` (stereo partly shown) [Example 77], in assay [1], the Emax was determined as 494% and the EC50 stood at 0.015 µM.

As to `NC(=O)c1ncn([C@@H]2O[C@H](CO)[C@@H](O)[C@H]2O)c1N` [AICAR], in the assay on ob/ob and db/db mice, the blood glucose reduction is given as 35%.

With `O=S(=O)(c1ccc(-c2ccc(-c3nc4nc(O[C@H]5CO[C@H](CO)[C@@H](O)C5)[nH]c4cc3Cl)cc2)cc1)C1COC1` [Example 55], in assay [1], the Emax was found to be 752% and the EC50 amounted to 0.008 µM.

On to `CC(C)(O)c1ccc(-c2ccc(-c3nc4nc(O[C@H]5CO[C@H](CO)[C@@H](O)C5)[nH]c4cc3Cl)cc2)cc1` [Example 39, (2R,3 S,5R)-5-((6-chloro-5-(4′-(2-hydroxypropan-2-yl)-[1,1′-biphenyl]-4-yl)-1H-imidazo[4,5-b]pyridin-2-yl)oxy)-2-(hydroxymethyl)tetrahydro-2H-pyran-3-ol], for which, in assay [1], the Emax turned out to be 379% and the EC50 worked out at 0.004 µM.

As to `NC(c1ccc(-c2ccc(-c3nc4nc(O[C@H]5CO[C@H](CO)[C@@H](O)C5)[nH]c4cc3Cl)cc2)cc1)C(F)(F)F` (stereo partly drawn) [Example 49, (2R,3 S,5R)-5-((5-(4′-(1-amino-2,2,2-trifluoroethyl)-[1,1′-biphenyl]-4-yl)-6-chloro-1H-imidazo[4,5-b]pyridin-2-yl)oxy)-2-(hydroxymethyl)tetrahydro-2H-pyran-3-ol], in assay [1], the Emax was 464% and the EC50 was 0.009 µM.

In the case of `OC[C@H]1OC[C@H](Oc2nc3nc(-c4ccc(-c5ccccc5)cc4)c(Cl)cc3[nH]2)[C@@H](O)[C@@H]1O` [Example 62, (2R,3 S,4S,5 S)-5-((5-([1,1′-biphenyl]-4-yl)-6-chloro-1H-imidazo[4,5-b]pyridin-2-yl)oxy)-2-(hydroxymethyl)tetrahydro-2H-pyran-3,4-diol], in assay [1], the Emax worked out at 545% and the EC50 amounted to 0.017 µM.

For `COC(=O)Nc1ccc(-c2ccc(-c3nc4[nH]c(O[C@H]5CO[C@H](CO)[C@@H](O)C5)nc4cc3Cl)cc2)cc1` [Example 74, Methyl (4′-(6-chloro-2-(((3R,5S,6R)-5-hydroxy-6-(hydroxymethyl)tetrahydro-2H-pyran-3-yl)oxy)-1H-imidazo[4,5-b]pyridin-5-yl)-[1,1′-biphenyl]-4-yl)carbamate], in assay [1], the Emax is 460% and the EC50 was 0.025 µM.
